Results published in patent publication US20220072011A1, “TREATMENTS OF ACCUMULATED FAT WITH DEOXYCHOLIC ACID AND SALTS THEREOF” (Allergan Sales, LLC, priority 2015, published 2022).

Test: Precipitate formation from sodium deoxycholate solutions after 1 week of storage (visual inspection)
Format: physicochemical
Conditions: 1 week storage
Protocol: Solutions of sodium deoxycholate at different concentration were evaluated for precipitate formation after 1 week of storage. […] By visual inspection, the amount of precipitation can be rated as tabulated below.

C[C@H](CCC(=O)[O-])[C@H]1CCC2C3CC[C@@H]4C[C@H](O)CC[C@]4(C)C3C[C@H](O)[C@@]21C.[Na+] (stereo partly drawn) [Sodium Deoxycholate, sodium (4R)-4-((3R,5R,10S,12S,13R,17R)-3,12-dihydroxy-10,13-dimethylhexadecahydro-1H-cyclopenta[a]phenanthren-17-yl)pentanoate]
Precipitation, Comment (0.5% w/v): Significant amounts of precipitate visible to the naked eye
Precipitation, Comment (1.0% w/v): Significant amounts of precipitate visible to the naked eye
